Measurements as given in article PMC3499488, “A Potential Peptide Therapeutic Derived from the Juxtamembrane Domain of the Epidermal Growth Factor Receptor” (PLoS ONE, 2012).
Read-outs that look alike come from different tables or passages of the source. Where a SMILES comes first, the peptide text is derived from it.

What was measured:
MDA-MB-231 cells [1] = test: Cell viability assay (CellTiter-Glo); type: cell-based, human
Description: Assays are run in triplicate.

A-549 cells = conditions: read-out: EC50 value; serum starved overnight, 24 h treatment; mean ± S.D. of two to three independent experiments
Experimental: (§1) Cells were plated into a 96-well plate (5,000 to 10,000 cells per well) in full growth media. The following day, media is exchanged for serum starved media (0.1% BSA in growth media without FBS) and incubated overnight. Cells were treated for 24 hours with peptides at varying concentrations range (0.78 to 200 µM). The cell viability is read using luminescent cell viability dye (CellTiter-Glo, Promega Corporation, USA) by adding 20 µL of dye to each well containing 100 µL of treated media. The cell viability is calculated by dividing each luminescent reading by the average of the luminescent readings for control, untreated cells. Assays are run in triplicate. Dose-response curves were generated and fitted in Prism 5.0 (GraphPad Software, Inc., USA). The EC50 values were generated using the log inhibitor-normalized response variable slope function (Y = 100/(1+10∧((LogEC50-X)*HillSlope)). EC50 values are shown with standard deviation values (S.D.) from at least three independent experiments. For comparison of MDA-MB-231 with HMEC, the cells were not serum starved and plated and treated in HMEC media.

[2] = tested on: HMEC (normal human mammary epithelial cells); conditions: read-out: EC50 value; treated in HMEC media, 24 h; mean ± S.D.
Experimental: as §1

[3] = tested on: IMR-90 normal lung fibroblasts; conditions: serum starved overnight, 24 h treatment; mean ± S.D.
Experimental: as §1

[4] = tested on: NR6 cells (EGFR null clone of NIH/3T3 fibroblasts); conditions: read-out: EC50 value; serum starved overnight, 24 h treatment; mean ± S.D. of two to three independent experiments
Experimental: as §1

MDA-MB-231 cells [5] = test: Cellular entry of FAM-labeled peptides, live-cell fluorescent confocal microscopy; type: cell-based, human; conditions: N-terminally FAM-labeled peptide, 2.5 µM, serum starved cells in HBSS, live-cell confocal fluorescence
Experimental: MDA-MB-231 cells (1×10^5 cells per plate) were plated on 35 mm glass-bottom plates (MatTek Corporation, Ashland, MA), allowed to adhere overnight, then serum starved overnight and analyzed the following day in HBSS (Hank’s balanced salt solution). For real-time uptake of the FAM-labeled peptides, after recording background images, the FAM-labeled peptides were added and cells were imaged every two minutes over approximately 30 minutes. After 30 minutes, images were taken less frequently. Images from representative timepoints are shown. For overnight treatment, the cells were treated in serum-starved media, exchanged into HBSS the following day and imaged.

[6] = tested on: MDA-MB-231 xenograft tumors; test: MDA-MB-231 xenografts in nude mice; type: in vivo
Experimental: NCR-nude female athymic mice were purchased from Taconic Farms, Inc. Mice were injected in the flank region with 1.5×10^6 MDA-MB-231 cells, while anesthetized with ketamine and xylazine. Prior to treatment, tumors were measured in three dimensions using a caliper and tumor volume was calculated by multiplying the three measured dimensions by 0.5 (V = 0.5*l*w*h). Once the tumors reached a minimum size of 100 mm^3, mice were injected intraperitoneally, twice a week, with 200 µL of the TE-64562 peptide (40 mg/kg; 7 µmol/kg), Tat peptide in PBS (20 mg/kg; 7 µmol/kg) or PBS. Endpoints were defined as the tumor size reaching 2000 mm^3 or 20 mm in any dimension, significant weight loss occurring or if the mouse appearing unhealthy according to body conditioning scoring standards. For histological analysis, organs were collected post-sacrifice and fixed in 4% formaldehyde in PBS, followed by paraffin embedding. Sections (6 µm thick) were mounted onto positively charged slides and H&E stained. Images were captured at 20× resolution on a Zeiss Axioplan 2 microscope.

[7] = tested on: EGFR dimerization in MDA-MB-231 cells; test: EGFR dimer detection, BS3 cross-linking and Western blot; type: cell-based, human; conditions: 25 µM, 30 minutes; reduction in the loading control (Stat3)
Experimental: Cells were plated in 10-cm dishes, grown to 80% confluence, serum starved overnight, treated and analyzed. For dose response assays, the peptides, EGFR-specific tyrosine kinase inhibitor (TKI) or control was added to each plate and incubated at 37°C for 30 minutes, followed by EGF (10 ng/mL) for an additional 10 minutes at 37°C. For timecourses, TE-64562 and/or EGF were added and the cells were incubated at 37°C for the indicated amounts of time. For EGFR dimer detection, cells were cross-linked after treatment using BS^3 crosslinker (bis[sulfosuccinimidyl] suberate, Thermo scientific, Inc) according to the manufacturer’s instructions. Immediately following treatment, cells were put on ice, washed twice with cold Tris-buffered saline (TBS, pH 7.4) and lysed with radio-immunoprecipitation buffer (50 mM Tris pH 7.5, 100 mM NaCl, 1% NP-40, 0.5% deoxycholate, 0.1% SDS, 1 mM EDTA and protease inhibitor cocktail). After protein concentration determination, cell lysates were analyzed by Western blot analysis with the indicated antibodies following standard procedures and visualized by chemiluminescence. Images were quantified using ImageJ Version 1.43 u.

SMILES: CC[C@H](C)[C@H](NC(=O)[C@H](Cc1c[nH]cn1)NC(=O)[C@H](CCCNC(=N)N)NC(=O)[C@H](CCCNC(=N)N)NC(=O)[C@H](CCCNC(=N)N)NC(=O)CNC(=O)[C@H](CCCNC(=N)N)NC(=O)[C@H](CCCNC(=N)N)NC(=O)[C@H](CCCNC(=N)N)NC(=O)[C@H](CCC(N)=O)NC(=O)[C@H](CCCNC(=N)N)NC(=O)[C@H](CCCNC(=N)N)NC(=O)[C@H](CCCCN)NC(=O)[C@H](CCCCN)NC(=O)[C@@H](N)CCCNC(=N)N)C(=O)N[C@H](C(=O)N[C@@H](CCCNC(=N)N)C(=O)N[C@@H](CCCCN)C(=O)N[C@@H](CCCNC(=N)N)C(=O)N[C@H](C(=O)N[C@@H](CC(C)C)C(=O)N[C@@H](CCCNC(=N)N)C(=O)N[C@@H](CCCNC(=N)N)C(=O)N[C@@H](CC(C)C)C(=O)N[C@@H](CC(C)C)C(=O)N[C@@H](CCC(N)=O)C(=O)N[C@@H](CCC(=O)O)C(=O)N[C@@H](CCCNC(=N)N)C(=O)O)[C@@H](C)O)C(C)C [TE-64562] (H-RKKRRQRRRGRRRHIVRKRTLRRLLQER-OH)
- EC50 (MDA-MB-231 cells [1]; cells not serum starved, plated and treated in HMEC media, 24 h, mean ± S.D., read-out: EC50): 7.4 ± 1.9 µM
- EC50 (MDA-MB-231 cells [1]; serum starved overnight (0.1% BSA, no FBS), 24 h treatment, CellTiter-Glo, mean ± S.D. of at least three independent experiments, read-out: EC50± S.D.): 12.6 ± 2.3 µM
- EC50 (A-549 cells): 6.1 ± 0.9 µM
- EC50 [2]: 38.4 ± 6.1 µM
- EC50 [3]: 174 ± 54 µM
- EC50 [4]: 104 ± 9 µM
- time until peptide entered cells (MDA-MB-231 cells [5]): approximately 10 minutes
- toxicity in vivo ([6]; 40 mg/kg intraperitoneally bi-weekly): does not show any significant non-selective toxicity in vivo
- body weight over the course of the study ([6]; 40 mg/kg intraperitoneally bi-weekly, versus Tat and saline groups): No significant difference in body weight
- histological examination of post-treatment liver, spleen and kidney ([6]; end of 5 weeks of treatment, H&E): No differences between the treatment groups
- toxicity to the cells in the dimerization experiment [7]: fairly toxic to the cells
